Measurements reported in PubChem BioAssay AID588641 (Sanford-Burnham Center for Chemical Genomics, 2011).
Active and inactive are the calls of the source. How the calls were made is not given here.

Target: alkaline phosphatase, placental type (human)
Test: PLAP enzyme inhibition by analogs, SAR follow-up, selectivity assay for mouse IAP inhibitor project, biochemical, human PLAP isozyme, set 2 (AID 588641)
Settings: purified human placental alkaline phosphatase, enzyme activity

IC50	SMILES
> 100 µM (inactive)	O=c1[nH]c2ccc(S(=O)(=O)NCc3ccc4c(c3)OCO4)cc2o1
> 100 µM (inactive)	O=C(CCNS(=O)(=O)c1ccc2[nH]c(=O)oc2c1)NCc1ccc2c(c1)OCO2
> 100 µM (inactive)	CSc1cccc(NC(=O)CCNS(=O)(=O)c2ccc3c(c2)oc(=O)n3C)c1
> 100 µM (inactive)	CCc1ccc(NC(=O)CCNS(=O)(=O)c2ccc3c(c2)oc(=O)n3C)cc1
> 100 µM (inactive)	Cc1ccccc1CNC(=O)CCCNS(=O)(=O)c1ccc2[nH]c(=O)oc2c1
> 100 µM (inactive)	COc1ccc(CCNC(=O)CCCNS(=O)(=O)c2ccc3[nH]c(=O)oc3c2)cc1OC
> 100 µM (inactive)	Cc1ccc(CNC(=O)C2CCCN(S(=O)(=O)c3ccc4[nH]c(=O)oc4c3)C2)cc1 (centres undefined)
> 100 µM (inactive)	COc1ccc(NC(=O)CCCNS(=O)(=O)c2ccc3[nH]c(=O)oc3c2)c(OC)c1
> 100 µM (inactive)	O=C(CCCNS(=O)(=O)c1ccc2[nH]c(=O)oc2c1)NCc1ccccc1Cl
> 100 µM (inactive)	COc1ccc(NC(=O)CCCNS(=O)(=O)c2ccc3[nH]c(=O)oc3c2)cc1OC
> 100 µM (inactive)	CN(C)c1ccc(CNC(=O)C2CCCN(S(=O)(=O)c3ccc4[nH]c(=O)oc4c3)C2)cc1 (centres undefined)
> 100 µM (inactive)	COc1ccccc1CNC(=O)CCCNS(=O)(=O)c1ccc2[nH]c(=O)oc2c1
> 100 µM (inactive)	COc1ccc(CNC(=O)CCCNS(=O)(=O)c2ccc3[nH]c(=O)oc3c2)cc1OC
> 100 µM (inactive)	COc1cccc(CNC(=O)CCNS(=O)(=O)c2ccc3[nH]c(=O)oc3c2)c1
> 100 µM (inactive)	O=C(CCCNS(=O)(=O)c1ccc2[nH]c(=O)oc2c1)NCc1cccc(F)c1
> 100 µM (inactive)	O=C(CCNS(=O)(=O)c1ccc2[nH]c(=O)oc2c1)NCc1ccc(Cl)cc1
> 100 µM (inactive)	Cc1ccc(C)c(NC(=O)CCNS(=O)(=O)c2ccc3[nH]c(=O)oc3c2)c1
> 100 µM (inactive)	COc1ccc(OC)c(NC(=O)CCNS(=O)(=O)c2ccc3c(c2)oc(=O)n3C)c1
> 100 µM (inactive)	O=C(CCNS(=O)(=O)c1ccc2ccccc2c1)NCCc1ccc2c(c1)OCO2
> 100 µM (inactive)	N#Cc1cccc(NC(=O)CNS(=O)(=O)c2ccc3[nH]c(=O)oc3c2)c1
> 100 µM (inactive)	Cc1ccc(C)c(NC(=O)CNS(=O)(=O)c2ccc3[nH]c(=O)oc3c2)c1
> 100 µM (inactive)	Cc1ccc(CNC(=O)CCNS(=O)(=O)c2ccc3[nH]c(=O)oc3c2)cc1
> 100 µM (inactive)	O=C(CCNS(=O)(=O)c1ccc2[nH]c(=O)oc2c1)NCc1cccc(Cl)c1
> 100 µM (inactive)	COc1ccc(CNC(=O)CCNS(=O)(=O)c2ccc3[nH]c(=O)oc3c2)cc1

IC50	SMILES
> 100 µM (inactive)	Cc1ccc(NC(=O)CCNS(=O)(=O)c2ccc3c(c2)oc(=O)n3C)c(C)c1
> 100 µM (inactive)	O=C(CCNS(=O)(=O)c1ccc2[nH]c(=O)oc2c1)NCc1ccccc1Cl
> 100 µM (inactive)	COc1ccc(NS(=O)(=O)c2ccc3[nH]c(=O)oc3c2)cc1OC
> 100 µM (inactive)	COc1cccc(CNC(=O)CNS(=O)(=O)c2ccc3[nH]c(=O)oc3c2)c1
> 100 µM (inactive)	Cc1ccc(C)c(CNC(=O)C2CCCN(S(=O)(=O)c3ccc4[nH]c(=O)oc4c3)C2)c1 (centres undefined)
> 100 µM (inactive)	COc1ccc(CNC(=O)CCNS(=O)(=O)c2ccc3[nH]c(=O)oc3c2)c(OC)c1
> 100 µM (inactive)	COc1ccc(CNC(=O)CNS(=O)(=O)c2ccc3[nH]c(=O)oc3c2)c(OC)c1
> 100 µM (inactive)	O=C(CCNS(=O)(=O)c1ccc2[nH]c(=O)oc2c1)NCc1ccc(F)cc1
> 100 µM (inactive)	O=C(CCCNS(=O)(=O)c1ccc2[nH]c(=O)oc2c1)NCCc1ccc(O)cc1
> 100 µM (inactive)	COc1ccc(CNS(=O)(=O)c2ccc3[nH]c(=O)oc3c2)c(OC)c1
> 100 µM (inactive)	O=C(CCNS(=O)(=O)c1ccc2[nH]c(=O)oc2c1)NCc1ccc(C(F)(F)F)cc1
> 100 µM (inactive)	O=C(CCNS(=O)(=O)c1ccc2[nH]c(=O)oc2c1)NCCc1ccc2c(c1)OCO2
> 100 µM (inactive)	O=C(CCNS(=O)(=O)c1ccc2[nH]c(=O)oc2c1)NCc1cccc(C(F)(F)F)c1
> 100 µM (inactive)	COc1ccc(CNS(=O)(=O)c2ccc3[nH]c(=O)oc3c2)cc1
> 100 µM (inactive)	O=C(CCNS(=O)(=O)c1ccc2[nH]c(=O)oc2c1)NCc1ccc(O)c(O)c1
> 100 µM (inactive)	O=C(CCS(=O)(=O)Nc1ccc2[nH]c(=O)oc2c1)NCc1cccc(Cl)c1
> 100 µM (inactive)	Cc1cc(NC(=O)CCNS(=O)(=O)c2ccc3[nH]c(=O)oc3c2)ccc1Br
> 100 µM (inactive)	O=c1[nH]c2ccc(S(=O)(=O)NCCc3ccc4c(c3)OCO4)cc2o1
> 100 µM (inactive)	N#Cc1cccc(NS(=O)(=O)c2ccc3[nH]c(=O)oc3c2)c1
> 100 µM (inactive)	O=C(NCc1ccc(F)cc1)C1CCCN(S(=O)(=O)c2ccc3[nH]c(=O)oc3c2)C1 (centres undefined)
> 100 µM (inactive)	Cc1ccc(NC(=O)CCNS(=O)(=O)c2ccc3c(c2)oc(=O)n3C)cc1C
> 100 µM (inactive)	O=C(CCNS(=O)(=O)c1ccc2[nH]c(=O)oc2c1)NCc1cccc(F)c1
> 100 µM (inactive)	N#Cc1ccc(NC(=O)CNS(=O)(=O)c2ccc3[nH]c(=O)oc3c2)cc1

Further lines, the molecule ahead of its results:

SMILES	IC50
O=C(N/N=C/c1ccc(F)cc1F)c1ccc(O)cc1	> 100 µM (inactive)
COc1ccc(NC(=O)CCNS(=O)(=O)c2ccc3c(c2)CCC3)cc1OC	> 100 µM (inactive)
COc1ccc(/C=N/NC(=O)c2cc(O)c(O)c(O)c2)cc1OC	> 100 µM (inactive)
O=C(N/N=C/c1ccc(Cl)c(Cl)c1)c1cc(O)c(O)c(O)c1	> 100 µM (inactive)
O=C(N/N=C/c1cc(Br)ccc1F)c1ccc(O)cc1	> 100 µM (inactive)
O=C(N/N=C/c1c(F)cccc1Cl)c1ccc(O)cc1O	> 100 µM (inactive)
O=C(N/N=C/c1ccccc1F)c1ccc(O)cc1O	> 100 µM (inactive)
COc1ccc(CNC(=O)C2CCCN(S(=O)(=O)c3ccc4[nH]c(=O)oc4c3)C2)cc1 (centres undefined)	> 100 µM (inactive)
COc1cc(C(=O)N/N=C/c2c(F)cccc2Cl)cc(OC)c1OC	> 100 µM (inactive)
COc1cccc(/C=N/NC(=O)c2cc(O)c(O)c(O)c2)c1O	> 100 µM (inactive)
COc1ccc(C(=O)N/N=C/c2c(F)cccc2Cl)cc1OC	> 100 µM (inactive)
Cc1ccc(C)c(NC(=O)C2CCCN(S(=O)(=O)c3ccc4c(c3)oc(=O)n4C)C2)c1 (centres undefined)	> 100 µM (inactive)
COc1ccc(NC(=O)CCNS(=O)(=O)c2ccc3ccccc3c2)cc1OC	> 100 µM (inactive)
N#Cc1ccc(NS(=O)(=O)c2ccc3[nH]c(=O)oc3c2)cc1	> 100 µM (inactive)
CC(C)Oc1ccc(CNC(=O)C2CCCN(S(=O)(=O)c3ccc4[nH]c(=O)oc4c3)C2)cc1 (centres undefined)	> 100 µM (inactive)
O=C(N/N=C/c1ccc(Br)cc1F)c1cc(O)ccc1O	> 100 µM (inactive)
CCc1ccc(NC(=O)C2CCCN(S(=O)(=O)c3ccc4c(c3)oc(=O)n4C)C2)cc1 (centres undefined)	> 100 µM (inactive)
O=C(N/N=C/c1c(F)cccc1Cl)c1cc(O)c(O)c(O)c1	> 100 µM (inactive)
COc1cc(/C=N/NC(=O)c2cc(O)c(O)c(O)c2)ccc1O	> 100 µM (inactive)

SMILES	IC50
O=C(N/N=C/c1c(F)cccc1F)c1ccc(O)cc1	> 100 µM (inactive)
COc1cccc(C(=O)N/N=C/c2ccccc2F)c1	> 100 µM (inactive)
O=C(N/N=C/c1ccccc1F)c1ccc(O)cc1	> 100 µM (inactive)
COc1ccc(CNC(=O)CCNS(=O)(=O)c2ccc3ccccc3c2)c(OC)c1	> 100 µM (inactive)
CC(C)c1ccc(/C=N/NC(=O)c2cc(O)c(O)c(O)c2)cc1	> 100 µM (inactive)
CCOc1cc(C(=O)N/N=C/c2ccccc2F)cc(OCC)c1OCC	> 100 µM (inactive)
CC(=NNC(=O)c1ccccc1OCCOc1ccccc1)c1ccccc1F	> 100 µM (inactive)
O=C(N/N=C/c1c(Cl)cccc1Cl)c1cc(O)c(O)c(O)c1	> 100 µM (inactive)
O=C(NN=Cc1ccccc1F)c1ccc(O)cc1	> 100 µM (inactive)
COc1ccc(/C=N/NC(=O)c2cc(O)c(O)c(O)c2)c(OC)c1	> 100 µM (inactive)
O=C(N/N=C/c1ccccc1C(F)(F)F)c1cc(O)c(O)c(O)c1	> 100 µM (inactive)
O=C(NCc1ccccc1)C1CCCN(S(=O)(=O)c2ccc3[nH]c(=O)oc3c2)C1 (centres undefined)	> 100 µM (inactive)
CC(C)c1ccc(NC(=O)CCNS(=O)(=O)c2ccc3c(c2)oc(=O)n3C)cc1	> 100 µM (inactive)
Cc1ccc(C)c(NC(=O)CCNS(=O)(=O)c2ccc3ccccc3c2)c1	> 100 µM (inactive)
CC(C)(C)c1ccc(/C=N/NC(=O)c2cc(O)c(O)c(O)c2)cc1	60.8 µM
O=C(N/N=C/c1c(F)cccc1Cl)c1ccc(O)cc1	> 100 µM (inactive)
Cc1ccc(NC(=O)CCNS(=O)(=O)c2ccc3c(c2)oc(=O)n3C)cc1	> 100 µM (inactive)
O=C(N/N=C/c1cccc(Cl)c1Cl)c1cc(O)c(O)c(O)c1	> 100 µM (inactive)
